Measurements as given in patent US11370785B2, “Multicyclic compounds as farnesoid X receptor modulators” (BRISTOL-MYERS SQUIBB COMPANY, priority 2017, dated 2022).

molecular target: T1, human FXR (Homo sapiens, UniProt Q96RI1); assay: transient human FXR/Gal4-luciferase reporter assay; format: cell-based; settings: Gal4-hFXR reporter in HEK293 cells; read-out: HLE GAL-FXR EC50
T1 construct: expressed in transfected cells; host or cells: HEK293 cells stably carrying a 5xGal4-response-element firefly luciferase reporter, transiently transfected with the pcDNA3.1-Gal4-FXR plasmid
T1 sequence (Q96RI1 262-486 limits assumed): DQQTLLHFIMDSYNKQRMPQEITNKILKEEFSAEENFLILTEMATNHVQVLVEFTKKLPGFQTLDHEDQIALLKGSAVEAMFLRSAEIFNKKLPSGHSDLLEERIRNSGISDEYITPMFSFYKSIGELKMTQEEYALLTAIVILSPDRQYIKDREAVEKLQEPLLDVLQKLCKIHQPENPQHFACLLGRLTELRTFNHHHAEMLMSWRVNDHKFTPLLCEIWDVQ
Outline: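 HEK293 cells stably carrying a 5×Gal4-response-element firefly luciferase reporter, transiently transfected with a CMV-driven Gal4 DNA-binding domain–human FXR ligand-binding domain fusion, were treated overnight at 37 °C with serially diluted compounds. Luminescence was read by Steady-Glo; DMSO background was subtracted and signal expressed as percent of the 8 μM GW-4064 response.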

EC50 [µM]	SMILES
0.026	O=C(O)c1cc(C(F)(F)F)c2cc(N3CCC4(CC3)CC(Cc3c(-c5ccccc5C(F)(F)F)noc3C3CC3)C4)ccc2n1 [Example 4, 6-(2-((5-Cyclopropyl-3-(2-(trifluoromethyl)phenyl)isoxazol-4-yl)methyl)-7-azaspiro[3.5]nonan-7-yl)-4-(trifluoromethyl)quinoline-2-carboxylic acid]

same assay, conditions: Gal4-hFXR reporter in HEK293 cells; relative to 8 μM GW-4064; read-out: FXR EC50

EC50 [µM]	SMILES
0.514	O=C(O)c1ccc(N2CCC3(CC(=Cc4c(-c5c(Cl)cccc5Cl)noc4C4CC4)C3)C2)nc1 (stereo not drawn) [Example 132]
0.12	COCc1onc(-c2c(Cl)cncc2Cl)c1C=C1CC2(CCN(c3nc4c(F)cc(C(=O)O)cc4s3)CC2)C1 [Example 155]
0.037	COCCOc1cc(C(=O)O)nc2ccc(N3CCC4(CC3)CC(=Cc3c(-c5c(Cl)cncc5Cl)noc3C(F)(F)F)C4)cc12 [Example 162]
0.006	O=C(O)c1cc(OCC(F)F)c2cc(N3CCC4(CC3)CC(Cc3c(-c5ccccc5C(F)(F)F)noc3C3CC3)C4)ccc2n1 [Example 149]
0.027	COc1cc(C(=O)O)nc2ccc(N3CCC4(CC3)CC(=Cc3c(-c5c(Cl)cncc5Cl)noc3C(F)(F)F)C4)cc12 [Example 161]
1.27	O=C(O)c1cc(C(F)(F)F)cc(N2CCC3(CC2)CC(Cc2c(-c4ccccc4C(F)(F)F)noc2C2CC2)C3)n1 [Example 163]
0.198	O=C(O)c1cc(F)c2nc(N3CCC4(CC3)CC(=Cc3c(-c5ccncc5C(F)(F)F)noc3C3CC3)C4)sc2c1 [Example 127]
0.004	O=C(O)c1cc(OCC(F)F)c2cc(N3CCC4(CC3)CC(=Cc3c(-c5ccccc5C(F)(F)F)noc3C3CC3)C4)ccc2n1 [Example 148]

The remaining lines, values behind:

SMILES	EC50 [µM]
COc1ccc(C(=O)O)c2ccc(N3CCC4(CC3)CC(=Cc3c(-c5ccccc5C(F)(F)F)noc3C3CC3)C4)nc12 [Example 117]	0.241
O=C(O)c1cc(OC2CCCC2)c2cc(N3CCC4(CC3)CC(Cc3c(-c5ccccc5OC(F)(F)F)noc3C3CC3)C4)ccc2n1 [Example 122]	0.016
O=C(O)c1cc(C(F)(F)F)c2cc(N3CCC4(CC3)CC(=Cc3c(C(C5CC5)C5CC5)noc3C3CC3)C4)ccc2n1 [Example 106]	1.42
O=C(O)c1cc(F)c2nc(N3C4CCC3CC3(CC(Nc5c(-c6c(Cl)cccc6Cl)noc5C5CC5)C3)C4)sc2c1 (stereo not drawn) [Example 16]	0.514
O=C(O)c1cc(OCC2CC2)c2cc(N3CCC4(CC3)CC(=Cc3c(-c5ccccc5OC(F)(F)F)noc3C3CC3)C4)ccc2n1 [Example 87]	0.034
COCCOc1cc(C(=O)O)nc2ccc(N3CCC4(CC3)CC(=Cc3c(-c5ccccc5OC(F)(F)F)noc3C3CC3)C4)cc12 [Example 110]	0.634
COc1cc(C(=O)O)nc2ccc(N3CCC4(CC3)CC(=Cc3c(-c5c(Cl)cncc5Cl)noc3C3CC3)C4)cc12 [Example 76]	0.014
O=C(O)C1(c2ccc(N3CCC4(CC3)CC(=Cc3c(-c5c(Cl)cccc5Cl)noc3C3CC3)C4)cc2)CC1 [Example 46]	0.391
Cc1nc(C(=O)O)c2ccc(N3CCC4(CC3)CC(=Cc3c(-c5ccccc5C(F)(F)F)noc3C3CC3)C4)cn12 [Example 74]	0.114
O=C(O)c1cc(OC2CCCC2)c2cc(N3CCC4(CC3)CC(=Cc3c(-c5ccccc5OC(F)(F)F)noc3C3CC3)C4)ccc2n1 [Example 121]	0.016
O=C(O)c1cc(OC2CCCC2)c2cc(N3CCC4(CC3)CC(=Cc3c(-c5ccccc5C(F)(F)F)noc3C3CC3)C4)ccc2n1 [Example 120]	0.003
O=C(O)c1ccc(N2CCC3(CC2)CC(=Cc2c(-c4c(Cl)cccc4Cl)cnn2C2CC2)C3)nc1 [Example 23]	4.64
O=C(O)c1ccc2nc(N3CCC4(CC3)CC(=Cc3c(-c5ccccc5C(F)(F)F)noc3C3CC3)C4)sc2n1 [Example 113]	1.24
O=C(O)Cc1ccc(N2CCC3(CC2)CC(=Cc2c(-c4c(Cl)cccc4Cl)noc2C2CC2)C3)cc1 [Example 45]	0.32

test system: Fgf15; assay: Acute mouse in vivo assay, Fgf15 gene expression in ileum; settings: 3 mg/kg single oral dose, @ 6 h
Experimental: Acute Mouse In Vivo Assay:
Male, C57BL6/NTac mice, weighing 25-28 g, are purchased from Taconic Labs (Hudson, N.Y.) and maintained on Teklad Global 18% Protein Rodent Diet (Harlan Laboratories). After 1 week acclimation, mice are sorted into groups based upon body weight. Mice are administered a single oral dose of vehicle or experimental compound. Systemic compound exposure is evaluated in plasma derived from blood collected via the submandibular vein at 1 hour post-dose, and at study termination (6 h). At study termination, the animals are euthanized and rapidly dissected. The medial lobe of the liver is divided, with one half being homogenized and analyzed for compound exposure, and the other half saved in RNAlater (Thermo-Fisher Scientific). The ileum is also dissected and preserved in RNAlater. Tissue samples in RNAlater are homogenized with MP Biomedicals' beads. […] RNA Concentration is determined with the Nano-Drop 8000 Spectrophotometer (Thermo Fisher). […] Mouse genes analyzed include Nr0b2 (which encodes the small heterodimer partner, SHP), Abcb11 (which encodes the bile salt excretion pump, BSEP), Cyp7a1, & Cyp8b1 in liver, and Fgf15, Fabp6 (which encodes ileal bile acid binding protein, I-BABP), Slc51a (which encodes organic solute transporter alpha subunit, OSTA), and Slc51b (which encodes organic solute transporter beta subunit, OSTB) in the ileum. […]

SMILES	Fgf15 expression, fold increase relative to vehicle control
O=C(O)c1cc(C(F)(F)F)c2cc(N3CCC4(CC3)CC(Cc3c(-c5ccccc5C(F)(F)F)noc3C3CC3)C4)ccc2n1 [Example 4, 6-(2-((5-Cyclopropyl-3-(2-(trifluoromethyl)phenyl)isoxazol-4-yl)methyl)-7-azaspiro[3.5]nonan-7-yl)-4-(trifluoromethyl)quinoline-2-carboxylic acid]	+24 x
